Test results: patent US5071643A, “Solvent system enhancing the solubility of pharmaceuticals for encapsulation” (R. P. Scherer Corporation, priority 1987, dated 1991)

Experiments:
[1] = Solubility of the basic drug thioridazine in PEG 400 in presence and absence of hydrogen ion
[2] = Appearance of ibuprofen mixtures in PEG 400 with sodium or potassium hydroxide (visual inspection); assay type: physicochemical
Protocol: Mixtures were prepared in 10 g quantities by dispersing the acidic pharmaceutical agent in polyethylene glycol or polyethylene glycol and glycerin or polyethylene glycol and polyvinylpyrrolidone or polyethylene glycol, glycerin, and polyvinylpyrrolidone. Aqueous solutions of hydroxide were then added.

| Compound | RESULT at 5° C. ([1]; FORMULA I, Hydrochloric Acid 0.0 mg) | RESULT at 5° C. ([1]; FORMULA II, Hydrochloric Acid 2.4 mg) | Appearance (Room temp) ([2]; 200 mg in 200 mg PEG 400, NaOH 0.1 M/E, water 1.5 wt %, slight ppt) | Appearance (Room temp) ([2]; 200 mg in 200 mg PEG 400, NaOH 0.2 M/E, water 2.8 wt %) | Appearance (Room temp) ([2]; 200 mg in 200 mg PEG 400, NaOH 0.3 M/E, water 4.1 wt %) | Appearance (Room temp) ([2]; 200 mg in 200 mg PEG 400, NaOH 0.4 M/E, water 5.2 wt %) | Appearance (Room temp) ([2]; 200 mg in 200 mg PEG 400, NaOH 0.5 M/E, water 6.6 wt %, solid admixture) | precipitation in presence of sodium hydroxide ([2]; PEG 400, 0.5 or more mole equivalents NaOH) | precipitation in presence of potassium hydroxide ([2]; PEG 400, 1.0 mole equivalents KOH, even at 4° C.) |
| --- | --- | --- | --- | --- | --- | --- | --- | --- | --- |
| CSc1ccc2c(c1)N(CCC1CCCCN1C)c1ccccc1S2 (stereo not drawn) [Thioridazine, thioridazine] | INSOLUBLE | SOLUBLE | – | – | – | – | – | – | – |
| CC(C)Cc1ccc(C(C)C(=O)O)cc1 (stereo not drawn) [Ibuprofen, ibuprofen] | – | – | Insoluble | Soluble | Soluble | Soluble | Insoluble | precipitation occurs | no precipitation occurs |
